Five molecules from ChEMBL document CHEMBL2086329, “Design and synthesis of potent, selective inhibitors of matriptase” (ACS Med Chem Lett, 2012) can be followed below.

pKi: −log10 of the molar value. Activity calls are given as the source filed them. The calls are words filed in the database; no cut-off is given here. Where a SMILES comes first, the peptide text is derived from it. The star is where a group is joined. CH2Cl = ClC*

Assay [1] concerns the target T1, Suppressor of tumorigenicity 14 protein (Homo sapiens, UniProt Q9Y5Y6).
T1 sequence (Q9Y5Y6 whole entry): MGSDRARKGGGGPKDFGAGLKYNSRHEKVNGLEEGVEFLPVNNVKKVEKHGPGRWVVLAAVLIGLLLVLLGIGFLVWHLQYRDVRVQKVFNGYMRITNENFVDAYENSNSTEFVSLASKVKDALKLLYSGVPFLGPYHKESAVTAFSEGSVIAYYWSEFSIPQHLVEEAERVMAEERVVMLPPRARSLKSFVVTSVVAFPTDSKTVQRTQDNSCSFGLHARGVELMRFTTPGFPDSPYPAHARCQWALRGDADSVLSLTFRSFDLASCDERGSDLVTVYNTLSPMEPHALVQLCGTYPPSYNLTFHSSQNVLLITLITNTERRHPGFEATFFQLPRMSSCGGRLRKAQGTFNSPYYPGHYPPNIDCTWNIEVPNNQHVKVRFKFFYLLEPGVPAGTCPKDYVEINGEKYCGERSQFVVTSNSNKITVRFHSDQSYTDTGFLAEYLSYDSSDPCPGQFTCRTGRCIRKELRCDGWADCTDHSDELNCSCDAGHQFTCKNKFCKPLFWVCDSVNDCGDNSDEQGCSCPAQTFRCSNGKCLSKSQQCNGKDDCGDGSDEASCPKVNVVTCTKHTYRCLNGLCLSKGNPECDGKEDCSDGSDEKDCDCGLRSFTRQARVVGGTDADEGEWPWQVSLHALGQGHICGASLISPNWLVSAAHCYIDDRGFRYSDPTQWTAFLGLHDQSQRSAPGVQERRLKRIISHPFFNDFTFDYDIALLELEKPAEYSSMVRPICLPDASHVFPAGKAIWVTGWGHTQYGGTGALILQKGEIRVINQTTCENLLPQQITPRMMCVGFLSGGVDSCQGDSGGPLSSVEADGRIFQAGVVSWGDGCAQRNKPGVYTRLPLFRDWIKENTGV
Kind of assay: Mixed inhibition of human matriptase expressed in Drosophila melanogaster S2 cells using Boc-QAR-AMC as substrate by fluorimetric analysis.

In assay [2] the target is T1, Suppressor of tumorigenicity 14 protein. Nature of the assay: Tight binding inhibition of human matriptase expressed in Drosophila melanogaster S2 cells using Boc-QAR-AMC as substrate incubated for 15 mins prior to substrate addition measured for 30 mins by fluorimetric analysis.
The target of assay [3] is T2, Suppressor of tumorigenicity 14 protein (Homo sapiens) (UniProt Q9Y5Y6).
T2 sequence (whole entry): T1 sequence (Q9Y5Y6 whole entry)
As to conditions: S2, 2.5 nM.
Description: Inhibition of human matriptase expressed in Drosophila melanogaster S2 cells using Boc-QAR-AMC as substrate at 2.5 nM by fluorimetric analysis

The target of a further assay is Prothrombin (Homo sapiens, UniProt P00734). Nature of the assay: Mixed inhibition of human thrombin expressed in Drosophila melanogaster S2 cells using Boc-QAR-AMC as substrate by fluorimetric analysis.
Assay [4] has as its target T3, Transmembrane protease serine 11D (Homo sapiens, UniProt O60235).
T3 sequence (O60235 whole entry): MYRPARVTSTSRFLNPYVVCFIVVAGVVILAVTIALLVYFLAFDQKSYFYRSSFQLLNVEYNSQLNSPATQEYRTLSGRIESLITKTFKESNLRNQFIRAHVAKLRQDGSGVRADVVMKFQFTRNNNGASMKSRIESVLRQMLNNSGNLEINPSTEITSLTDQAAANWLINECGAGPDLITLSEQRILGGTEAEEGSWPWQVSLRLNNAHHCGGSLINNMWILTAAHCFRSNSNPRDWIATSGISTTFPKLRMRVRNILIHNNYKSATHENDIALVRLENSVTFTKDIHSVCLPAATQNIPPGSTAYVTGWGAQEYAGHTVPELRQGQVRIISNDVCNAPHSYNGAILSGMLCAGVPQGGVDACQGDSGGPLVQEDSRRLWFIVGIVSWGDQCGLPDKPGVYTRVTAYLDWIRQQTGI
Nature of the assay: Tight binding inhibition of human TMPRSS11D expressed in Drosophila melanogaster S2 cells using Boc-QAR-AMC as substrate incubated for 15 mins prior to substrate addition measured for 30 mins by fluorimetric analysis.

A further assay addresses Trypsin (Homo sapiens, UniProt P07477+P07478+P35030). Kind of assay: Tight binding inhibition of human trypsin expressed in Drosophila melanogaster S2 cells using Boc-QAR-AMC as substrate incubated for 15 mins prior to substrate addition measured for 30 mins by fluorimetric analysis.
Assay [5] deals with T4, Transmembrane protease serine 6 (Homo sapiens, UniProt Q8IU80).
T4 sequence (Q8IU80 whole entry): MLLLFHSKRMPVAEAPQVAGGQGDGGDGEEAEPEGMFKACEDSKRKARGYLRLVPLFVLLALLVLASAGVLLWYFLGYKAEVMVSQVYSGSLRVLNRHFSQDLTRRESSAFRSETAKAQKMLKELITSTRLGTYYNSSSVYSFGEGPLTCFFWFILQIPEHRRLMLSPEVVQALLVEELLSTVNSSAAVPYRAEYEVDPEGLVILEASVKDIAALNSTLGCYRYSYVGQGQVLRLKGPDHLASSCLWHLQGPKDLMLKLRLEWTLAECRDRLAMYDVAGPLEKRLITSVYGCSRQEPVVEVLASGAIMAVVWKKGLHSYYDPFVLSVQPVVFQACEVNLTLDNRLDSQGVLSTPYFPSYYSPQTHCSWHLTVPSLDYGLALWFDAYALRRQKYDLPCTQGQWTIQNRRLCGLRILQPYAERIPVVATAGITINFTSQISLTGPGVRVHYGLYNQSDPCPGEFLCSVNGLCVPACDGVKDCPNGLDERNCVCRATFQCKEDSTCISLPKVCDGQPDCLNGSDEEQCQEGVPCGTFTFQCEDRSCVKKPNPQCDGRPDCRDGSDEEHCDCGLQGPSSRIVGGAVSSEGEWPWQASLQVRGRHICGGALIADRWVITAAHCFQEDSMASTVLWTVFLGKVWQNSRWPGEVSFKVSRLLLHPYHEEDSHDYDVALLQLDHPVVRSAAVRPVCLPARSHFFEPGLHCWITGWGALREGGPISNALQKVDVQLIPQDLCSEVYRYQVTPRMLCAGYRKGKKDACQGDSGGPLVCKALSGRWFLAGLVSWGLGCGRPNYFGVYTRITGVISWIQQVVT
Nature of the assay: Tight binding inhibition of human matriptase2 expressed in Drosophila melanogaster S2 cells using Boc-QAR-AMC as substrate incubated for 15 mins prior to substrate addition measured for 30 mins by fluorimetric analysis.

Another assay deals with Furin (Homo sapiens) (UniProt P09958). Kind of assay: Inhibition of human furin expressed in Drosophila melanogaster S2 cells using Boc-RRVR-AMC as substrate at 10 uM.
Assay [6] concerns the target T2, Suppressor of tumorigenicity 14 protein (Homo sapiens). Kind of assay: Irreversible inhibition of human matriptase expressed in Drosophila melanogaster S2 cells using Boc-QAR-AMC as substrate incubated for 20 mins prior to substrate addition measured for 75 mins by fluorimetric analysis.

Furin (Homo sapiens), sequence (P09958 whole entry): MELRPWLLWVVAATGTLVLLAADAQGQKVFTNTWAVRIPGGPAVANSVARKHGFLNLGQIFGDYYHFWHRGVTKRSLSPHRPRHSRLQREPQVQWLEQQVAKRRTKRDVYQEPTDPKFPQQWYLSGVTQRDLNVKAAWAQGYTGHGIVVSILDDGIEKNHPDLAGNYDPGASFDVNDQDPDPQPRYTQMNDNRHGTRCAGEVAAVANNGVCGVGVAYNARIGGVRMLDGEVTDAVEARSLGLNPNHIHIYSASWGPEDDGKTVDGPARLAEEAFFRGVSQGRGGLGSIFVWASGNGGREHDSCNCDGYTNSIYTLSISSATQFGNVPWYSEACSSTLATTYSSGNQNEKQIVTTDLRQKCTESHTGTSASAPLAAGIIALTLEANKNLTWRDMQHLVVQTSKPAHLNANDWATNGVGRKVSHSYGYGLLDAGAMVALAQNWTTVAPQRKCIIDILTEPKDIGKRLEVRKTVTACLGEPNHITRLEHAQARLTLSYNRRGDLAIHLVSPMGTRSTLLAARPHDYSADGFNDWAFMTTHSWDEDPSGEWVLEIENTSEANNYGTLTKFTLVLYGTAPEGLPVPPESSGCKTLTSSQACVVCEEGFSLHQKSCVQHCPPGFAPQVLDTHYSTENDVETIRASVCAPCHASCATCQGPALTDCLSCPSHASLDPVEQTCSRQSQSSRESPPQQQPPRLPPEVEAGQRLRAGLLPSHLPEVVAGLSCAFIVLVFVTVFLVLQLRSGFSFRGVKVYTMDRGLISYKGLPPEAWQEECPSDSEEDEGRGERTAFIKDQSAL

`N=C(N)NCCC[C@H](N)C(=O)c1nc2ccccc2s1`: in [1], the negative logarithm of the Ki (pKi) (as a rule, −log10 of the Ki, conventionally taken in molar units) was 6.34.

`C[C@H](N)C(=O)N[C@@H](CCCN=C(N)N)C(=O)c1nc2ccccc2s1` gave a negative logarithm of the Ki (pKi) in assay [2] of 8.85.

As for `C[C@H](NC(=O)[C@H](CCC(N)=O)NC(=O)[C@@H](N)CCCNC(=N)N)C(=O)N[C@@H](CCCNC(=N)N)C(=O)c1nc2ccccc2s1`, the inhibition entry in assay [3] is “Active”. Moreover, the pKi at Prothrombin is 6.20; in [4] it was 8.08; in [5], 8.48. In addition, the Ki (as a rule, a dissociation constant, usually derived from enzyme kinetics or from competition with a known ligand) on Trypsin worked out at 0.97 nM. Also, the inhibition result on Furin (Homo sapiens) is “inactive”.

On to `N=C(N)NCCC[C@H](NC(=O)CNC(=O)[C@@H](N)CCC(=O)O)C(=O)CCl` (H-Glu-Gly-Arg-CH2Cl), for which the inhibition result in assay [6] was “Active”.

In [1], `C[C@H](NC(=O)[C@H](CCC(N)=O)NC(=O)[C@@H](N)CCCNC(=N)N)C(=O)N[C@@H](CCCNC(=N)N)C(O)c1nc2ccccc2s1` (mixture of isomers) showed a negative logarithm of the Ki (pKi) of 5.21.
